Measurements taken from paper PMC8881573, “Inhibition of SRP-dependent protein secretion by the bacterial alarmone (p)ppGpp” (Nature Communications, 2022).

Key:
[1] = biological target: T1, (Ec)Ffh-NG (Escherichia coli, UniProt P0AGD7); test: Isothermal titration calorimetry (ITC) of nucleotide binding; parameters: species or system E. coli
T1 construct: purified NG domains of (Ec)Ffh, (Ec)FtsY and (Bs)Ffh; His6 (C); made in house; host or cells: E. coli BL21 (DE3)
Experimental: Ligands and proteins (purified NG domains of (Ec)Ffh, (Ec)FtsY and (Bs)Ffh) were diluted with a buffer containing 20 mM HEPES-Na (pH 7.5), 200 mM NaCl, 20 mM MgCl2 and 20 mM KCl. The NG domains of (Ec)Ffh, (Ec)FtsY and (Bs)Ffh were titrated in the sample-cell at a nominal concentration of 25 µM each. The nucleotides GDP, GTP, ppGpp and pppGpp (Jena Bioscience, Germany) were placed in the syringe and their concentrations were predetermined by absorbance at 252 nm to saturate the protein samples during the titrations. All the measurements were performed at 25 °C with the instrument MicroCal PEAQ-ITC (©Malvern Panalytical) with a method consisting of 13 injections (first 0.4 µL, and the rest 3 µL each) and 150 s of spacing. The raw data (see source) were processed with the MicroCal PEAQ-ITC Analysis Software (©Malvern Panalytical) using the “one set of sites” models.

[2] = tested on: SRP-dependent membrane insertion of YohP into INV; test: Post-translational YohP insertion into inverted inner membrane vesicles (INV), proteinase K resistance; format: biochemical, E. coli; conditions: at 0.6 mM (p)ppGpp, 10 µM GTP
Experimental: For protein transport assay, YohP cloned in pET19b was synthesized in vitro using a purified transcription/translation system composed of cytosolic translation factors (CTF) and high salt-washed ribosomes[35],[36]. The ^35S-Methionine/^35S-Cysteine labeling mix was obtained from Perkin Elmer (Wiesbaden, Germany). INVs of E. coli cells were prepared by sucrose gradient centrifugation of cell extracts as described[76] and resuspended in INV buffer (50 mM triethanolamine acetate, pH 7.5, 200 mM sucrose, 1 mM DTT). […] The supernatant containing YohP was then incubated with INV, liposomes or SecYEG-proteoliposomes for 10 min at 37 °C in the presence of 10 µM GTP. […] Next, the samples were denatured at 56 °C for 10 min in 35 μL of TCA loading dye (prepared by mixing one part of solution III (1 M dithiothreitol) with 4 parts of solution II (6.33% (w/v) SDS, 0.083 M Tris, 30% (v/v) glycerol and 0.053% (w/v) bromophenol blue) and 5 parts of solution I (0.2 M Tris, 0.02 M EDTA pH 8)) and analyzed after separation on a modified SDS-PAGE[35] by phosphor imaging. For quantification of YohP insertion, autoradiography samples were analyzed by using the ImageQuant (GE Healthcare) software. […] Mean values and SEM values were determined by using either Excel (Microsoft Corp.) or GraphPad Prism (GraphPad Prism Corp. San Diego). […]

[3] = biological target: T2, (Ec)FtsY-NG (Escherichia coli, UniProt P10121); test: Microscale thermophoresis (MST) ligand binding; parameters: species or system E. coli; conditions: NG domain labeled with NT 647, 21 °C; read-out: (Ec)FtsY KD MST
T2 construct: purified NG domains of (Ec)Ffh, (Ec)FtsY and (Bs)Ffh; His6 (C); made in house; host or cells: E. coli BL21 (DE3)
Experimental: (§1) Ligand binding assays with purified NG domains of (Ec)Ffh, (Ec)FtsY and (Bs)Ffh proteins were carried out by microscale thermophoresis (MST)[80]. All experiments were performed on a Monolith NT.115 (NanoTemper Technologies GmbH, Munich, Germany; software: NanoTemper Control Version 2.0.2.29) at 21 °C (red LED power was set to 50–100% and infrared laser power to 75%). After labeling of primary amines within (Ec)Ffh, (Ec)FtsY, and (Bs)Ffh (50 µM each) with the dye NT 647 (according to the manufacturers protocol), the proteins were re-buffered in SEC buffer containing 20 mM HEPES-Na, 20 mM KCl, 20 mM MgCl2, 200 mM NaCl (final pH 7.5), 10 mg ml^−1 BSA and 0.007% Tween. Two-hundred nanomolar of (Ec)Ffh, (Ec)FtsY, and (Bs)Ffh were titrated with GDP, GTP, ppGpp, and pppGpp starting from a concentration ranging between 0.75 and 3 mM, respectively. At least six independent MST experiments per ligand and protein were recorded at 680 nm and analyzed using NanoTemper Analysis version 1.5.37 and 1.2.009, and Origin8G software suits.

[4] = biological target: T1, (Ec)Ffh-NG; test: Microscale thermophoresis (MST) ligand binding; parameters: species or system E. coli; conditions: NG domain labeled with NT 647, 21 °C
Experimental: as §1

T1 sequence (P0AGD7 1-296): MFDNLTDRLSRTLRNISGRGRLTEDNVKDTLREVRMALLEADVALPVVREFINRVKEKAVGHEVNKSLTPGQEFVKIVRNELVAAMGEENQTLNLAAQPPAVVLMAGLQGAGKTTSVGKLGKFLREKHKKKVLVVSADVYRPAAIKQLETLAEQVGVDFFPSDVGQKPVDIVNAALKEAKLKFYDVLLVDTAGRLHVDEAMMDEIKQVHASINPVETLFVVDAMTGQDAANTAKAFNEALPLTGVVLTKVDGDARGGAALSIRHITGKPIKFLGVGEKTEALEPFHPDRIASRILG
T2 sequence (P10121 197-497): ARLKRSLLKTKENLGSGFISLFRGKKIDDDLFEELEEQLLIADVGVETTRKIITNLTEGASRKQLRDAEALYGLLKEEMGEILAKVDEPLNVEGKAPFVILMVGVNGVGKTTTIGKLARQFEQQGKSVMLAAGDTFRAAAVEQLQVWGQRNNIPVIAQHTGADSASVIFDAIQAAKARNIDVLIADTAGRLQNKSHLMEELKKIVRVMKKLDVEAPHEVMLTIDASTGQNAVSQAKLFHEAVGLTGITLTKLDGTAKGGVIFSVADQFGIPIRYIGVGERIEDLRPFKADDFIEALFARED

Nc1nc2c(ncn2[C@@H]2O[C@H](COP(=O)(O)OP(=O)(O)O)[C@@H](OP(=O)(O)OP(=O)(O)O)[C@H]2O)c(=O)[nH]1 [ppGpp]
Kd [1]: 7.9 ± 1.9 µM
YohP insertion into INV [2]: complete block of insertion
Kd [3]: 30 µM
Kd [4]: 13.5 µM

Nc1nc2c(ncn2[C@@H]2O[C@H](COP(=O)(O)OP(=O)(O)OP(=O)(O)O)[C@@H](OP(=O)(O)OP(=O)(O)O)[C@H]2O)c(=O)[nH]1 [pppGpp]
Kd [1]: 13.9 ± 7.1 µM
YohP insertion into INV [2]: complete block of insertion
Kd [3]: 66.6 µM
Kd [4]: 68.3 µM
